Experimental data published in US10011584B2, “Polymorphic form of [5-fluoro-3-({2-[(4-fluorobenzene) sulfonyl]pyridin-3-yl}methyl)-2-methylindol-1-yl]-acetic acid” (Atopix Therapeutics Limited, priority 2014, dated 2018).

Legend:
Assay type in all cases: physicochemical
[1] = Dynamic vapour sorption (DVS) with FT-Raman check pre- and post-measurement
Experimental: (§1) In the Examples the following conditions were used for measurements. • 1H-NMR: 1H-NMR spectra were recorded using a Bruker DPX300 spectrometer with a proton frequency of 300.13 MHz, a 30° excitation pulse, and a recycle delay of 1 s. 16 scans were accumulated. d6-DMSO was used as the solvent. • DSC: Differential scanning calorimetry was carried out with a Perkin Elmer DSC-7 instrument (closed gold sample pan under N2 atmosphere). • DVS (SPS): Sorption Measurement System SPS11-100n. The sample was placed in an Al crucible, and the sample was allowed to equilibrate at a given r.h. before starting a predefined humidity program. The used measurement program can be recognized in the corresponding figures (blue line). • FT-Raman spectroscopy: FT-Raman spectra were recorded on a Bruker RFS 100 FT-Raman system with a near infrared Nd:YAG laser operating at 1064 nm and a liquid nitrogen-cooled germanium detector. For each sample, a minimum of 64 scans with a resolution of 2 cm^−1 were accumulated. 300 mW laser power was used. The FT-Raman data are shown in the region between 3500 to 100 cm^−1. […] Sample preparation: The samples were generally measured without any special treatment other than the application of slight pressure to get a flat surface. […]
In order to examine the behaviour of Batch 1 in the presence of variable water vapour pressure, the sample was analyzed by DVS. […]

[2] = TG-FTIR thermogravimetry; conditions: 25° C. to 250° C., heating rate 10° C./min
Experimental: as §1
Batch 3 was analyzed by TG-FTIR in a temperature range of 25° C. to 250° C. and a heating rate of 10° C./min. […]

[3] = Thermodynamic stability of polymorphic forms (suspension equilibration of a mixture of forms, PXRD); conditions: for temperature range of thermodynamic stability (in words): enantiotropic polymorphs
Experimental: Polymorphic Form 2 has a melting signal at 196° C. as measured by differential scanning calorimetry and is stable at temperatures up to about 60-65° C.
A mixture with similar ratios of the products of Example 4, Experiment 15 (Form 1), Example 4, Experiment 9 (form 2+x) and Example 4, Experiment 6 (Form 2+Form 3) were suspended in acetonitrile and shaken for 13 days at 22° C. to give a product designated Product P24). The solid was recovered by filter centrifugation and characterized by PXRD. […] These signals could be assigned to (i) another crystalline form or (ii) the signals could not be detected for Product P24 because the diffractogram has a lower intensity.
Thus, after 13 days at 22° C. the PXRD corresponds to that of Form 2.

In the case of `Cc1c(Cc2cccnc2S(=O)(=O)c2ccc(F)cc2)c2cc(F)ccc2n1CC(=O)O` [Batch 1, [5-fluoro-3-({2-[(4-fluorobenzene)sulfonyl]pyridin-3-yl}methyl)-2-methylindol-1-yl]-acetic acid], the “phase transition of sample recovered from DVS” value ([1]; FT-Raman pre- and post DVS) was “no phase transition” and the “mass change at the end of the DVS measurement versus starting material” value ([1]; end humidity 50% r.h., scanning rate 5% r.h. per hour, cycle 50-0-95-50% r.h.) was 0.6%.
With `Cc1c(Cc2cccnc2S(=O)(=O)c2ccc(F)cc2)c2cc(F)ccc2n1CC(=O)O` [Batch 3, [5-fluoro-3-({2-[(4-fluorobenzene)sulfonyl]pyridin-3-yl}methyl)-2-methylindol-1-yl]-acetic acid] the decomposition temperature [2] was greater than 160 °C.
For `Cc1c(Cc2cccnc2S(=O)(=O)c2ccc(F)cc2)c2cc(F)ccc2n1CC(=O)O` [Form 1, [5-fluoro-3-({2-[(4-fluorobenzene)sulfonyl]pyridin-3-yl}methyl)-2-methylindol-1-yl]-acetic acid], the “temperature range of thermodynamic stability (in words)” value [3] was “thermodynamically stable at high temperatures”.
In the case of `Cc1c(Cc2cccnc2S(=O)(=O)c2ccc(F)cc2)c2cc(F)ccc2n1CC(=O)O` [Form 2, [5-fluoro-3-({2-[(4-fluorobenzene)sulfonyl]pyridin-3-yl}methyl)-2-methylindol-1-yl]-acetic acid], the “most stable form after suspension equilibration” value ([3]; mixture of Forms 1, 2 and 3 in acetonitrile, shaken 13 days at 22° C., PXRD) was “most stable form at room temperature” and the “temperature up to which the form is thermodynamically stable” value ([3]; upper limit of stability range of the polymorphic form) was 60-65 °C.
In the case of `Cc1c(Cc2cccnc2S(=O)(=O)c2ccc(F)cc2)c2cc(F)ccc2n1CC(=O)O` [Form 3, [5-fluoro-3-({2-[(4-fluorobenzene)sulfonyl]pyridin-3-yl}methyl)-2-methylindol-1-yl]-acetic acid], the “temperature range of thermodynamic stability (in words)” value [3] was “stable at temperatures between the stability ranges of Forms 2 and 1”.
